Results published in patent US20110207771A1, “N-(L-ALKYL-2-PHENYLETHYL)-CARBOXAMIDE DERIVATIVES AND USE THEREOF AS FUNGICIDES” (SYNGENTA CROP PROTECTION, INC., priority 2006, published 2011).
One block for each compound: values may come before it.

Experiments:
[1] = tested on: Mycosphaerella arachidis (Cercospora arachidicola); assay: Example B-12: action against Mycosphaerella arachidis, fungal growth assay; assay type: cell-based; conditions: 6-7 days
Method: (§1) Example B-12: Action Against Mycosphaerella arachidis (Early Leaf Spot of Groundnut; Cercospora arachidicola (Anamorph))—Fungal Growth Assay Conidia of the fungus from cryogenic storage were directly mixed into nutrient broth (PDB potato dextrose broth). After placing a (DMSO) solution of the test compounds into a microtiter plate (96-well format) the nutrient broth containing the fungal spores was added. The test plates were incubated at 24° C. and the inhibition of growth was measured photometrically after 6-7 days. The activity of a compound is expressed as fungal growth inhibition (0=no growth inhibition, ratings of 80% to 99% mean good to very good inhibition, 100%=complete inhibition).

Septoria tritici = assay: Example B-13: action against Septoria tritici, fungal growth assay; assay type: cell-based; conditions: for fungal growth inhibition: 72 hrs
Method: as §1, with “B-13:” for “B-12:”, “Septoria tritici—Fungal” for “Mycosphaerella arachidis (Early Leaf Spot of Groundnut; Cercospora arachidicola (Anamorph))—Fungal”, “determined” for “measured”, “72 hrs.” for “6-7 days.”

Botrytis cinerea = assay: Example B-11: action against Botrytis cinerea, fungal growth assay; assay type: cell-based; conditions: 48-72 hrs
Method: as §1, with “B-11:” for “B-12:”, “Botrytis cinerea—Fungal” for “Mycosphaerella arachidis (Early Leaf Spot of Groundnut; Cercospora arachidicola (Anamorph))—Fungal”, “determined” for “measured”, “48-72 hrs.” for “6-7 days.”

[2] = tested on: Monographella nivalis (Fusarium nivale, Microdochium nivale); assay: Example B-14: action against Monographella nivalis, fungal growth assay; assay type: cell-based; conditions: 72 hrs
Method: Example B-14: Action Against Monographella nivalis (Anamorph: Fusarium nivale, Microdochium nivale; Snow Mould)—Fungal Growth Assay After placing a DMSO-solution (2% Dimethylsulfoxid, 0.025% Tween 20) of the test compounds into a microtiter plate (96-well format) the nutrient broth containing the fungal spores was added. 40.000 conidia/ml of the fungus from cryogenic storage were directly mixed into nutrient broth (PDB potato dextrose broth). The compounds were tested at a variety of application rates; these rates are shown in parts per million (ppm) in the table. The test plates were incubated at 24° C. and the inhibition of growth was measured photometrically after 72 hrs (0=no growth inhibition, ratings of 80% to 99% mean good to very good inhibition, 100%=complete inhibition).

Pyrenophora teres = assay: Example B-15: action against Pyrenophora teres (net blotch) on barley leaf segments; assay type: in vivo; conditions: 4 days after inoculation
Method: Example B-15: Action Against Pyrenophora teres (Net Blotch) on Barley Barley leaf segments are placed on agar in multiwell plates (24-well format) and sprayed with test solutions (200 ppm, […], and 20 ppm of active ingredient). After drying, the leaf disks are inoculated with a spore suspension of the fungus. After appropriate incubation the activity of a compound is assessed 4 days after inoculation as preventive fungicidal activity (in %).

SMILES: CC(Cc1ccc(Cl)cc1Cl)NC(=O)c1cn(C)nc1C(F)F (single isomer, unassigned; (+)) [(+)-3-difluoromethyl-1-methyl-1H-pyrazole-4-carboxylic acid [2-(2,4-dichlorophenyl)-1-methyl-ethyl]-amide]
inhibition at 20 ppm ([1]; Mycosphaerella arachidis, 20 ppm): 100%
inhibition at 6 ppm (Septoria tritici; Zymoseptoria tritici, 72 h, 6 ppm): 100%
inhibition at 20 ppm (Septoria tritici; Zymoseptoria tritici, 72 h, 20 ppm): 100%

SMILES: CC(Cc1ccc(Cl)cc1Cl)NC(=O)c1cn(C)nc1C(F)F (single isomer, unassigned; (+)) [(+)-3-difluoromethyl-1-methyl-1H-pyrazole-4-carboxylic acid ] [(+)-3-difluoromethyl-1-methyl-1H-pyrazole-4-carboxylic acid [2-(2,4-dichlorophenyl)-1-methyl-ethyl]-amide]
fungal growth inhibition (Botrytis cinerea; 2 ppm): 80%
fungal growth inhibition (Botrytis cinerea; 6 ppm): 100%
fungal growth inhibition (Botrytis cinerea; 20 ppm): 100%
inhibition of growth ([2]; 2 ppm): 100%
inhibition of growth ([2]; 6 ppm): 100%
inhibition of growth ([2]; 20 ppm): 100%
preventive fungicidal activity (Pyrenophora teres; 20 ppm): 100%
preventive fungicidal activity (Pyrenophora teres; 60 ppm): 100%
preventive fungicidal activity (Pyrenophora teres; 200 ppm): 100%

SMILES: CC(Cc1ccc(Cl)cc1Cl)NC(=O)c1cn(C)nc1C(F)F (single isomer, unassigned; (-)) [(−)-3-difluoromethyl-1-methyl-1H-pyrazole-4-carboxylic acid ] [(−)-3-difluoromethyl-1-methyl-1H-pyrazole-4-carboxylic acid [2-(2,4-dichlorophenyl)-1-methyl-ethyl]-amide]
fungal growth inhibition (Botrytis cinerea; 2 ppm): 0%
fungal growth inhibition (Botrytis cinerea; 6 ppm): 20%
fungal growth inhibition (Botrytis cinerea; 20 ppm): 20%
fungal growth inhibition ([1]; 2 ppm): 0%
fungal growth inhibition ([1]; 6 ppm): 50%
fungal growth inhibition ([1]; 20 ppm): 80%
fungal growth inhibition (Septoria tritici; 2 ppm): 0%
fungal growth inhibition (Septoria tritici; 6 ppm): 80%
fungal growth inhibition (Septoria tritici; 20 ppm): 100%
inhibition of growth ([2]; 2 ppm): 0%
inhibition of growth ([2]; 6 ppm): 0%
inhibition of growth ([2]; 20 ppm): 20%
preventive fungicidal activity (Pyrenophora teres; 20 ppm): 80%
preventive fungicidal activity (Pyrenophora teres; 60 ppm): 100%
preventive fungicidal activity (Pyrenophora teres; 200 ppm): 100%

SMILES: CC(Cc1ccc(Br)cc1Cl)NC(=O)c1cn(C)nc1C(F)F (stereo not shown) [Compound 1.451, 3-difluoromethyl-1-methyl-1H-pyrazole-4-carboxylic acid [2-(4-bromo-2-chlorophenyl)-1-methyl-ethyl]-amide]
melting point: 183 to 184 °C

Continued, values first:

melting point: 157 °C
SMILES: CC(Cc1ccc(Cl)cc1Cl)NC(=O)c1cn(C)nc1C(F)F (stereo not shown) [Compound 1.197, 3-difluoromethyl-1-methyl-1H-pyrazole-4-carboxylic acid [2-(2,4-dichlorophenyl)-1-methyl-ethyl]-amide]

melting point: 165 to 168 °C
SMILES: Cn1cc(C(=O)NC2(Cc3ccc(Cl)cc3Cl)CC2)c(C(F)F)n1 [Compound 1.231, 3-difluoromethyl-1-methyl-1H-pyrazole-4-carboxylic acid [1-(2,4-dichlorobenzyl)-cyclopropyl]-amide]

melting point: 96 to 98 °C
SMILES: CC(Cc1ccc(-c2ccc(Cl)cc2)cc1Cl)NC(=O)c1cn(C)nc1C(F)F (stereo not shown) [Compound 1.462, 3-difluoromethyl-1-methyl-1H-pyrazole-4-carboxylic acid [2-(3,4′-dichlorobiphenyl-4-yl)-1-methyl-ethyl]-amide]
